# Test results from patent publication US20260207590A1, “CTPS1 INHIBITORS FOR USE IN THE TREATMENT OF CTPS2 DEFICIENT CANCER” (STEP PHARMA S.A.S., priority 2022, published 2026).
# Legend:
# [1] = system: human cancer cell lines; assay: Human cancer cell line viability with CTPS-IA (CellTiter-Glo, 72 hours), IC50 correlated with CTPS1/CTPS2 RNA expression; type: cell-based; settings: all three cell line sets (19, 60, 103 lines); P-value>0.05 in all cases
# Description: CTPS2 expression levels were also found to correlate with IC50 values for CTPS-IA. […] A nonlinear regression model was used to calculate half maximal inhibitory concentration (IC50). CTPS1 and CTPS2 expression levels, measured by RNA abundance, were either generated by RNA sequencing or retrieved from the publicly available Cancer Cell Line Encyclopedia. In a set of 19 human cancer cell lines derived from haematological cancers, lower CTPS2 expression was associated with increased sensitivity to CTPS-IA (Pearson correlation r=0.50, P-value=0.0007). In a set of 60 human cancer cell lines covering common cancer types, lower CTPS2 expression was associated with increased sensitivity to CTPS-IA (Pearson correlation r=0.24, P-value=<0.0001). In an independent set of 103 human cancer cell lines covering common cancer types, lower CTPS2 expression was associated with increased sensitivity to CTPS-IA (Pearson correlation r=0.14, P-value=<0.0001).
# [2] = biological target: T1, CTPS1 (Homo sapiens, UniProt P17812); settings: see e.g. WO2020083975 (CTPS-IA), WO2020245664 (CTPS-IB); cited from earlier work
# T1 sequence (P17812 1-591): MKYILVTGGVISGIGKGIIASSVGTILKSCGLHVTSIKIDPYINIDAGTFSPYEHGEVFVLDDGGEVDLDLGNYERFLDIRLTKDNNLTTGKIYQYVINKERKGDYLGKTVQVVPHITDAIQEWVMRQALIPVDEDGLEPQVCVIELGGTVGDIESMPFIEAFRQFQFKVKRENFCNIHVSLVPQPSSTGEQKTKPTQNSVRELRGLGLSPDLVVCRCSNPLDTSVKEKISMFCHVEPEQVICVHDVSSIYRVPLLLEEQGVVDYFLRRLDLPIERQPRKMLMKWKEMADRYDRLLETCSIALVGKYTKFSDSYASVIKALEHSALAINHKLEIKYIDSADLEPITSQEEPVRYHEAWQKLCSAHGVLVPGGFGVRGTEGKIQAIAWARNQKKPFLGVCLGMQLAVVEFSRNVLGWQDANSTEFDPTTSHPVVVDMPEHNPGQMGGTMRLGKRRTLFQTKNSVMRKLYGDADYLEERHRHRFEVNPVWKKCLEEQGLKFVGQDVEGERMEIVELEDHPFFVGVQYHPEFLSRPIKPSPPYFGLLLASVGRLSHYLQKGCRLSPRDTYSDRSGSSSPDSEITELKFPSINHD
SMILES,Association of the level of CTPS1 expression with sensitivity to CTPS-IA [1],CTPS1 inhibition and selectivity (in words) [2]
"CCOc1cncc(-c2ccc(NC(=O)C3(c4ccnc(NS(=O)(=O)C5CC5)n4)CCOCC3)nc2)n1 [CTPS-IA, 4-(2-(cyclopropanesulfonamido)pyrimidin-4-yl)-N-(5-(6-ethoxypyrazin-2-yl)pyridin-2-yl)tetrahydro-2H-pyran-4-carboxamide]",not associated with sensitivity to CTPS-IA,potent and selective inhibitor of CTPS1
"CCOc1cncc(-c2ccc(NC(=O)C3(c4ccnc(NS(=O)(=O)CC)n4)CCOCC3)nc2)n1 [CTPS-IB, N-(5-(6-ethoxypyrazin-2-yl)pyridin-2-yl)-4-(2-(ethylsulfonamido)pyrimidin-4-yl)tetrahydro-2H-pyran-4-carboxamide]",–,potent and selective inhibitor of CTPS1
